# Data taken from US20240316038A1, “APOL1 INHIBITORS AND METHODS OF USE” (Maze Therapeutics, Inc., priority 2021, published 2024).
# Key:
# [1] = molecular target: T1, APOL1 G2 (Homo sapiens, UniProt O14791, DEL388-389); assay: APOL1 calcium transport inhibition assay (GCaMP6f calcium influx, FLIPR) in HEK T-REx/GCaMP6f/APOL1 G2 K6.3 cells; type: cell-based; settings: inhibition of APOL1-mediated calcium influx; geometric mean of at least 2 assay runs, † = single assay run (technical duplicate)
# T1 construct: expressed in transfected cells; host or cells: HEK293 T-REx clonal lines: HEK T-REx/GCaMP6f/APOL1 G2 K6.3 in A1, HEK293/T-REx APOL1 G2/clone #2 in A2
# T1 sequence (O14791 with tags, fused parts or gaps DEL388-389): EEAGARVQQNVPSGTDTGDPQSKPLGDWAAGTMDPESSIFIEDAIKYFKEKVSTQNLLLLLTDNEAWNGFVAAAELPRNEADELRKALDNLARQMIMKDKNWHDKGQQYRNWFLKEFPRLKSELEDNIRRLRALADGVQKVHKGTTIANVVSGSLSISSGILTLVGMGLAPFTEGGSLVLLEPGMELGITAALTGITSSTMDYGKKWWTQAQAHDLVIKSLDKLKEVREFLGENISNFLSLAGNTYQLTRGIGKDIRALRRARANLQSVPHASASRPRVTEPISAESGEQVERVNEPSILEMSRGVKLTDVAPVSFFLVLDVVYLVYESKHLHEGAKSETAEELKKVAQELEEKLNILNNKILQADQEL
# Method in brief: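 HEK293 cells stably expressing GCaMP6f, APOL1 G2 induced 6 h with doxycycline (20 ng/mL added), then washed into Ca2+-free Tyrode's buffer pH 7.4. Compounds (8-point dose response) preincubated 10 min at room temperature, then Ca2+ injected to 5 mM final and influx read on FLIPR. AC50 reported as geometric mean of runs.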
# [2] = molecular target: T1, APOL1 G2; assay: Rescue of HEK293 cell death caused by overexpression of APOL1 (CellTiter-Glo luminescence), HEK293/T-REx APOL1 G2/clone #2; type: cell-based; settings: reversal of cell death caused by overexpression of APOL1; geometric mean of at least 2 assay runs, † = single assay run (technical duplicate)
# Method in brief: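 HEK293/T-REx APOL1 G2 clone #2 cells, 5,000/well, induced with 6 ng/mL doxycycline and exposed to compound (8-point, 3-fold dilutions, 0.5% DMSO) for 17 h at 37 °C. Viability by CellTiter-Glo luminescence; EC50 for reversal of APOL1-induced death from a four-parameter logistic fit, geometric mean of ≥2 runs.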
Structure (SMILES),AC50 [1],EC50 [2]
"CN(c1ccc(OC[C@@H](O)CN(CCc2cccc(Cl)c2)CC2CC2)cc1)S(C)(=O)=O [Compound 59, (S)—N-(4-(3-((3-chlorophenethyl)(cyclopropylmethyl)amino)-2-hydroxypropoxy)phenyl)-N-methylmethanesulfonamide]",245 nM,1060 nM
"CCN(CCc1cccc(Cl)c1)C[C@H](O)COc1ccc(N(C)S(C)(=O)=O)cc1 [Compound 60, (S)-N-(4-(3-((3-chlorophenethyl)(ethyl)amino)-2-hydroxypropoxy)phenyl)-N-methylmethanesulfonamide]",< 267 nM,306 nM
"C[C@H](CNCCc1cccc(Cl)c1)COc1ccc(N(C)S(C)(=O)=O)cc1 [Compound 61, (R)—N-(4-(3-((3-chlorophenethyl)amino)-2-methylpropoxy)phenyl)-N-methylmethanesulfonamide]",376 nM,933 nM
"CS(=O)(=O)c1ccc(OC[C@@H](O)CN2CCCCC2Cc2cccc(Cl)c2)cc1 (stereo partly drawn) [Compound 62, (2S)-1-(2-(3-chlorobenzyl)piperidin-1-yl)-3-(4-(methylsulfonyl)phenoxy)propan-2-ol]",396 nM,642 nM
"CN(c1ccc(OC[C@@H](O)CN[C@H]2C[C@H](c3cccc(Cl)c3)C2)cc1)S(C)(=O)=O [Compound 65, N-(4-((S)-3-((trans-3-(3-chlorophenyl)cyclo-butyl)amino)-2-hydroxypropoxy)phe-nyl)-N-methylmethanesulfon-amide]",258 nM,955 nM
"CS(=O)(=O)c1ccc(OC[C@@H](O)CN[C@H]2C[C@H](c3cccc(Cl)c3)C2)cc1 [Compound 66, (S)-1-((trans-3-(3-chlorophenyl)cyclo-butyl)amino)-3-(4-(methylsulfonyl)phe-noxy)propan-2-ol]",468 nM,1380 nM
"CS(=O)(=O)c1ccc(OC[C@H](O)CN[C@H]2C[C@H](c3cccc(Cl)c3)C2)cc1 [Compound 67, (R)-1-((trans-3-(3-chlorophenyl)cyclo-butyl)amino)-3-(4-(methylsulfonyl)phe-noxy)propan-2-ol]",340 nM,1350 nM
"CN(c1ccc(OC[C@@H](O)CN2CCC(c3cccc(Cl)c3)C2(C)C)cc1)S(C)(=O)=O (stereo partly drawn) [Compound 68, N-(4-((2S)-3-(3-(3-chlorophenyl)-2,2-dimethylpyrrolidin-1-yl)-2-hydroxypropoxy)phe-nyl)-N-methylmethanesulfon-amide]",916 nM,591 nM
"CN(c1ccc(OC[C@H](O)CN2CCC(c3cccc(Cl)c3)C2(C)C)cc1)S(C)(=O)=O (stereo partly drawn) [Compound 71, N-(4-((2R)-3-(3-(3-chlorophenyl)-2,2-dimethylpyrrolidin-1-yl)-2-hydroxypropoxy)phe-nyl)-N-methylmethanesulfon-amide]",943 nM,1960 nM
"CN(c1ccc(OC[C@@H](O)CN2CCC(c3cccc(Cl)c3)C2)cc1)S(C)(=O)=O (stereo partly drawn) [Compound 74, N-(4-((2S)-3-(3-(3-chlorophenyl)pyrro-lidin-1-yl)-2-hydroxypropoxy)phe-nyl)-N-methylmethanesulfon-amide]",1290 nM,2580 nM
"CN(c1ccc(OC[C@H](O)CN2CCC(c3cccc(Cl)c3)C2)cc1)S(C)(=O)=O (stereo partly drawn) [Compound 77, N-(4-((2R)-3-(3-(3-chlorophenyl)pyrro-lidin-1-yl)-2-hydroxypropoxy)phe-nyl)-N-methylmethanesulfon-amide]",1670 nM,> 6300 nM
"CN(c1ccc(OC[C@@H](O)CN2CCOC(c3cccc(Cl)c3)C2)cc1)S(C)(=O)=O (stereo partly drawn) [Compound 80, N-(4-((2S)-3-(2-(3-chlorophenyl)morpho-lino)-2-hydroxypropoxy)phe-nyl)-N-methylmethanesulfon-amide]",13900 nM,13000 nM
"CN(c1ccc(OC[C@H](O)CN2CCOC(c3cccc(Cl)c3)C2)cc1)S(C)(=O)=O (stereo partly drawn) [Compound 83, N-(4-((2R)-3-(2-(3-chlorophenyl)morpho-lino)-2-hydroxypropoxy)phe-nyl)-N-methylmethanesulfon-amide]",> 25000 nM,> 30000 nM
"CN(c1ccc(OC[C@@H](O)CNCCc2cccc(Cl)c2)cc1)S(C)(=O)=O [Compound 86, (S)-N-(4-(3-((3-chlorophenethyl)a-mino)-2-hydroxypropoxy)phe-nyl)-N-methylmethanesulfon-amide]",557 nM,> 4110 nM
"CN(c1ccc(OC[C@H](O)CNCCc2cccc(Cl)c2)cc1)S(C)(=O)=O [Compound 87, (R)-N-(4-(3-((3-chlorophenethyl)a-mino)-2-hydroxypropoxy)phe-nyl)-N-methylmethanesulfon-amide]",352 nM,1850 nM
"CN(c1ccc(OC[C@@H](O)CNCCc2cc(Cl)ccc2Cl)cc1)S(C)(=O)=O [Compound 90, (S)-N-(4-(3-((2,5-dichlorophenethyl)amino)-2-hydroxypropoxy)phe-nyl)-N-methylmethanesulfon-amide]",515 nM,1460 nM
"CN(c1ccc(OC[C@@H](O)CNCCc2cc(Cl)cc(Cl)c2)cc1)S(C)(=O)=O [Compound 91, (S)-N-(4-(3-((3,5-dichlorophenethyl)amino)-2-hydroxypropoxy)phe-nyl)-N-methylmethanesulfon-amide]",472 nM,1040 nM
"CN(c1ccc(OC[C@H](O)CNC2(Cc3cccc(Cl)c3)CCOC2)cc1)S(C)(=O)=O (stereo partly drawn) [Compound 92, N-(4-((2R)-3-((3-(3-chlorobenzyl)tetra-hydrofuran-3-yl)amino)-2-hydroxypropoxy)phe-nyl)-N-methylmethanesulfon-amide]",682 nM,> 9790 nM
"CS(=O)(=O)c1ccc(OC[C@@H](O)CNCCc2cccc(Cl)c2)cc1 [Compound 93, (S)-1-((3-chlorophenethyl)a-mino)-3-(4-(methylsulfonyl)phe-noxy)propan-2-ol]",6540 nM,> 30000 nM
"CS(=O)(=O)c1ccc(OC[C@H](O)CNCCc2cccc(Cl)c2)cc1 [Compound 94, (R)-1-((3-chlorophenethyl)a-mino)-3-(4-(methylsulfonyl)phe-noxy)propan-2-ol]",1620 nM,8370 nM
"CC(C)(Cc1cccc(Cl)c1)NC[C@@H](O)COc1ccc(S(C)(=O)=O)cc1 [Compound 97, (R)-1-((1-(3-chlorophenyl)-2-methylpropan-2-yl)amino)-3-(4-(methylsulfonyl)phe-noxy)propan-2-ol]",314 nM,460 nM
"COc1ccccc1CCNC[C@H](O)COc1ccc(N(C)S(C)(=O)=O)cc1 [Compound 98, (S)-N-(4-(2-hydroxy-3-((2-methoxyphenethyl)amino)propoxy)phe-nyl)-N-methylmethanesulfon-amide]",3920 nM,> 20000 nM
"CN(c1ccc(OC[C@@H](O)CNCCc2cccc(C#N)c2)cc1)S(C)(=O)=O [Compound 99, (S)-N-(4-(3-((3-cyanophenethyl)a-mino)-2-hydroxypropoxy)phe-nyl)-N-methylmethanesulfon-amide]",4140 nM,> 30000 nM
"CCc1ccccc1CCNC[C@H](O)COc1ccc(N(C)S(C)(=O)=O)cc1 [Compound 100, (S)-N-(4-(3-((2-ethylphenethyl)ami-no)-2-hydroxypropoxy)phe-nyl)-N-methylmethanesulfon-amide]",1260 nM,2730 nM
